# In US20150064713A1, “METHODS, KITS AND MEANS FOR DETERMINING INTRACELLULAR INTERACTIONS” (priority 2013, published 2015):
# Tested on: regulatory and catalytic subunits of the cAMP dependent protein kinase A (PKA)
# Experiment: PKA regulatory/catalytic subunit interaction monitored in living cells via VSVG RII-β-PARC (bait) and mCherry-cat-α (prey), TIRFM
# Assay type: cell-based
# Conditions: mCherry-cat-α prey, within seconds upon addition
# Source text: FIG. 8 Monitoring protein reaction dynamics inside individual cells. A: Domain structures of bait-PARCs to measure PKA subunit interactions. B: A bait-PARC containing the regulatory domain RII-β of PKA was co-expressed with the cytosolic prey protein (mCherry-cat- ? to monitor their interaction dynamics inside living cells. Left: Recruitment of the prey to bait microstructures before and after pharmacological perturbation. Right: Derived prey recruitment kinetics (Iso: Isoproterenol; Prop: Propranolol; F/I: forskolin+IBMX; see Supplementary Methods for details). Scale bar: 5 μm. c: Two distinct regulatory domains on bait-PARCs were co-expressed together with the prey protein mCherry-cat- ? . Left: Image of a representative experiment depicting cells grown on a DNA-immobilized antibody array. The checkerboard pattern of antibodies is overlayed with magenta (anti-HA) or cyan (anti-VSVG) circles. Right: The recruitment of prey proteins to the two distinct bait proteins was monitored in individual microstructured spots via TIRFM during pharmacological perturbation (Iso: Isoproterenol; ATP: adenosine triphosphate; F/I: forskolin+IBMX). Scale bar: 10 μm.
# Agonist induced activation of G-protein coupled receptors (GPCRs) leads to the dissociation of regulatory and catalytic subunits of the cAMP dependent protein kinase A (PKA) (Wong and Scott, 2004). […]
structure (smiles),measurement,value
CC(C)NCC(O)c1ccc(O)c(O)c1 (stereo not shown) [isoproterenol],interaction between bait and prey upon addition of agonist,the interaction between bait and prey was lost
